In PubChem BioAssay AID248 (DTP/NCI, 2004):
Toxic doses and inconclusive results are not listed. Rule as the data show it: active = T/C of 150% or more; inactive = T/C below 125%.

Test system: L1210 leukemia ip in BDF1 mice, survival T/C
Experiment: NCI In Vivo Anticancer Drug Screen. Data for tumor model L1210 Leukemia (intraperitoneal) in B6D2F1 (BDF1) mice
Conditions: endpoint: mean survival time, higher = longer survival
Procedure, shortened: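 Tumor was transplanted into mice, which were then dosed with test compound or vehicle alone. Survival was recorded for each group, and the treated figure was expressed relative to the control figure.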

Measured: T/C

Cc1cc(C(C)(C)C)c(OC(=S)N(C)C)c(C(C)(C)C)c1
inactive: dose: 12.5 mg/kg/injection, schedule: Q04DX003 (ip), vehicle: saline with Tween-80 96 % of control | dose: 25.0 mg/kg/injection, schedule: Q04DX003 (ip), vehicle: saline with Tween-80 94 % of control | dose: 50.0 mg/kg/injection, schedule: Q04DX003 (ip), vehicle: saline with Tween-80 100 % of control

COc1cc(OC)c(NC(=O)c2ccc([N+](=O)[O-])s2)cc1Cl
inactive: dose: 50.0 mg/kg/injection, schedule: Q01DX005 (ip), vehicle: saline 94 % of control | dose: 100.0 mg/kg/injection, schedule: Q01DX005 (ip), vehicle: saline 94 % of control | dose: 200.0 mg/kg/injection, schedule: Q01DX005 (ip), vehicle: saline 94 % of control

O=C(O)CCCCCCCCCCCCO
inactive: dose: 100.0 mg/kg/injection, schedule: Q04DX003 (ip), vehicle: Klucel (hydroxypropylcellulose) (HPC) 96 % of control | dose: 200.0 mg/kg/injection, schedule: Q04DX003 (ip), vehicle: Klucel (hydroxypropylcellulose) (HPC) 91 % of control | dose: 400.0 mg/kg/injection, schedule: Q04DX003 (ip), vehicle: Klucel (hydroxypropylcellulose) (HPC) 96 % of control
